Assay results taken from patent publication US20060217340A1, “Methods and products for treating hypertension by modulation of TRPC3 channel activity” (University of Vermont and State Agricultural College, priority 2005, published 2006).
“Also recorded” adds a separate entry of the source.

Tests used:
Type in all cases: cell-based, rat
[1] = test system: smooth muscle cells isolated from sense- or antisense-treated cerebral arteries; assay: Perforated patch clamp, UTP-activated whole-cell current; settings: 30 μM UTP
Description: Patch clamp electrophysiology. Single smooth muscle cells were enzymatically isolated from sense- or antisense-treated cerebral arteries using an isolation solution of the following composition (in mM): 60 NaCl, 58 sodium glutamate, 5.6 KCl, 2 MgCl2, 10 glucose, 0.1 CaCl2, 10 HEPES (pH 7.4) with 0.5 mg/ml papain, and 1 mg/ml dithioerythritol added. After 10 minutes, arterial segments were placed in a second isolation solution containing 0.1 mM CaCl2 and a collagenase type F and hyaluronidase mixture (1 mg/ml each). Trituration was performed with a polished wide-bore pipette and the cells were stored on ice and used the same day. Whole cell ionic currents were measured using the perforated patch method in the presence or absence of 30 μM UTP. Recording electrodes (4-7 MΩ resistance) were pulled from borosilicate glass. Plated cells were voltage clamped and held at −60 mV for 15 minutes prior to experimentation; whole cell currents were monitored while voltage was slowly ramped (−120 to +20 mV, 0.167 mV/ms); currents were not leak subtracted. The bath solution contained (in mM): 120 NaCl, 1.2 MgCl2, 1.8 CaCl2, 10 HEPES (pH 7.4), and 10 glucose. The pipette solution contained (in mM): 120 CsCl, 3 MgCl2, 0.1 EGTA, 10 HEPES (pH 7.2), 10 glucose and 200 μg/ml amphotericin B. A series resistance of approximately 40 MΩ was accepted for all perforated patch clamp experiments. Membrane currents were filtered at 1 kHz, digitized at 5 kHz and stored in a personal computer system for subsequent analysis. pClamp 8.1 and Clampfit 8.1 (Axon Instruments) were used to record and analyze membrane currents. Cell capacitance was measured with the cancellation circuitry of the voltage-clamp amplifier (Axopatch 200A amplifier, Axon Instruments, Sunnyvale, Calif., USA). All current recordings were performed at room temperature (22° C.).

[2] = test system: cerebral artery SMCs; assay: Membrane potential recordings in pressurized cerebral arteries; settings: for resting membrane potential (Vm): before UTP; for pressure-induced depolarization of arterial SMCs: intravascular pressure increased from 20 to 80 mm Hg
Excerpt: Oligodeoxynucleotide Sequences and Reverse Permeabilization. TRPC6 sense and antisense oligodeoxynucleotides (ODN's) were designed as previously described (Welsh et al 2002 Circ Res 90, 248-250) and were as follows: sense, 5′-[…]-3′ (SEQ ID: 3) and 5′-GCACACGCAGCCTCTTCAC-3′ (SEQ ID: 4) antisense, 5′-[…]-3′ (SEQ ID: 5) and 5′-[…]-3′ (SEQ ID: 6). TRPC3 sense and antisense ODN's were designed based on the rat TRPC3 gene (Ohki et al 2000 J Biol Chem 275: 39055-39060) and are as follows: sense, 5′-[…]-3′ (SEQ ID: 7) and 5′-[…]-3′ (SEQ ID: 8); anti-sense, 5′-[…]-3′ (SEQ ID: 9) and 5′-[…]-3′ (SEQ ID: 10). The last five bases on the 5′ and 3′ end were phosphorothioated in order to limit ODN degradation. For some experiments fluoroscein-isothiocyanate was conjugated to the 5′ end to allow for histological assessment of cellular uptake of the ODNs. All ODNs were synthesized and HPLC purified commercially by Qiagen (Alameda, Calif., USA). Sense and antisense ODN's (2 μM) were introduced into the arterial SMs using a reversible permeabilization procedure (Lesh et al 1995 Circ Res 77,220-230)). The arterial segments were then organ cultured for 3 days in D-MEM/F-12 culture media with L-glutamine (2 mM), penicillin (50 units/ml) and streptomycin (50 μg/ml) prior to use.
Diameter and membrane potential recordings. Endothelial cell denuded artery segments were mounted on glass pipettes in an arteriograph chamber (Living Systems, Burlington, Vt., USA), pressurized to 20 mmHg (with no flow), and superfused with warm (37° C.), gassed (95% 02/5% CO2) physiological saline solution (PSS) containing (in mM): 119 NaCl, 4.7 KCl, 24 NaHCO3, 0.2 KH2PO4, […], 1.2 MgSO4, 1.6 CaCl2, and 10.6 glucose, pH 7.4. In experiments using Ca^2+-free PSS, CaCl2 was omitted and 3 mM EGTA and 30 μM diltiazem added. In experiments with diacylglycerol induction, 300 μM of the diacylglycerol analogue OAG (1-oleyol-2-acetyl-sn-glycerol) was added. The endothelium was removed as previously described (Sun et al 1993 Endothelium 1, 115-122). To verify endothelial cell removal the arteries were pressurized to 60 mmHg and allowed to develop myogenic tone prior to exposing the vessels to 1 μM UTP. Absence of a dilation or biphasic constrictor response to 1 μM UTP indicated successful endothelial cell removal (Marelli 2001 Am J Physiol Heart Cir Physiol 281, H1759-H1766; Miyagi et al 1996 Br J Pharmacol 118, 847-856). Arterial diameter or membrane potential (Vm) of sense and anti-sense treated arteries was measured in the absence (control) or presence of UTP (concentration range: 0.1 to 10 μM). Membrane potential was measured by inserting a sharp glass electrode (≈100 MΩ resistance) containing 0.5M KCl into the vessel wall. The criteria for successful vascular smooth muscle cell impalement were: (1) a sharp negative Vm deflection on entry; (2) a stable potential for at least 1 minute after entry; and (3) a sharp positive Vm deflection upon removal. Measurements were made using an electrometer (World Precision Instruments) and the data were recorded via computer using Axotape and Dataq software. Arterial diameter was measured using a video dimension analyzer (IonOptix Corporation; Milton, Mass.).

[3] = test system: TRPC6; assay: Western analysis of TRPC6 protein expression in arteries; settings: cerebral arterial SMCs
Description: Western Analysis. Arterial segments were homogenized in lysis buffer (5 minutes, 4° C.) containing (in mM): 40 CAPS, 1 DL-Dithiothreitol (DTT), 10 EDTA, 15 MgCl2, 115 NaCl, 1 NaOrthovanadate, 1 NaF, 2.5 Urea, and 0.25% deoxychlorate, 10% glycerol, 1% NP-40, 0.2% SDS, and 1:50 mammalian protease inhibitor cocktail (Sigma, St. Louis, Mo., USA). Equal amounts of sample protein were separated on a 10% polyacrylamide gel and transferred to a nitrocellulose membrane. The membranes were exposed to a TRPC3 or TRPC6 polyclonal antibody (anti-rabbit 1:200 dilution, Alomone Labs, Jerusalem, Israel) and a […] (GAPDH) monoclonal antibody (anti-mouse, 1:1000 dilution, Chemicon Labs, Temecula, Calif., USA). Alexa-Fluor 680® goat anti-rabbit (Molecular Probes, Eugene, Oreg., USA) and IRDyeTM800 anti-mouse (Rockland Immunochemicals, Gilbertsville, Pa., USA) were used to fluorescently label the TRPC3 and GAPDH antibodies respectively. The density of signals specific for the TRPC3 and GAPDH bands in a given lane on a membrane were measured after scanning the membrane with an Odyssey® infared imaging system (Li-COR Biosciences, Lincoln, Nebr., USA). Quantified amounts were normalized to a total protein amount lane on the polyacrylamide gel.
Oligodeoxynucleotide Sequences and Reverse Permeabilization. […]

Substance	SMCs in which the response to UTP was absent [1]	SMCs in which the response to UTP was greatly suppressed [1]	UTP-induced depolarization of SMCs versus sense-treated arteries ([2]; all UTP concentrations tested)	resting membrane potential (Vm) [2] [mV]	pressure-induced depolarization of arterial SMCs [2] [mV]	effect on the expression of TRPC6 [3]	cells with UTP-activated whole cell current ([1]; voltage ramps −120 mV to 20 mV)
5′-GAGAACCATGAACTGGAATA-3′ (SEQ ID: 9) and 5′-ACGACCAACACGACCAGACA-3′ (SEQ ID: 10) (phosphorothioate ends, further chemistry not given here) [TRPC3 antisense, antisense ODNs based on the rat TRPC3 gene; last five bases on the 5′ and 3′ end phosphorothioated]	3 of 5	2 of 5	significantly less; also recorded: significantly reduced	−49±2	14±1	no effect	
5′-TATTCCAGTTCATGGTTCTC-3′ (SEQ ID: 7) and 5′-TGTCTGGTCGTGTTGGTCGT-3′ (SEQ ID: 8) (phosphorothioate ends, further chemistry not given here) [TRPC3 sense, sense control ODNs based on the rat TRPC3 gene; end bases phosphorothioated]				−50±1	14±1		8 of 9
